Data: patent publication US20240261367A1, “CYCLIC PEPTIDE IMMUNOMODULATORS” (priority 2021, published 2024)

Biological target: T1, PD-1/PD-L1 (Homo sapiens, UniProt Q9NZQ7)
T1 construct: TVMV protease site linker (C); made in house; host or cells: HEK293T cells
Assay: PD-1/PD-L1 Homogenous Time-Resolved Fluorescence (HTRF) binding assay
Conditions: PD-L1-His (10 nM) pre-incubated with inhibitor 15 m, then PD-1-Ig (20 nM)
Source text: Methods for Testing the Ability of Macrocyclic Peptides to Compete for the Binding of PD-1 to PD-L1 Using Homogenous Time-Resolved Fluorescence (HTRF) Binding Assays
The ability of the compounds of formula (I) to bind to PD-L1 was investigated using a PD-1/PD-L1 Homogenous Time-Resolved Fluorescence (HTRF) binding assay.
Homogenous Time-Resolved Fluorescence (HTRF) Binding Assay
The interaction of PD-1 and PD-L1 can be assessed using soluble, purified preparations of the extracellular domains of the two proteins. The PD-1 and PD-L1 protein extracellular domains were expressed as fusion proteins with detection tags, for PD-1, the tag was the Fc portion of Immunoglobulin (PD-1-Ig) and for PD-L1 it was the 6 histidine motif (PD-L1-His). All binding studies were performed in an HTRF assay buffer consisting of dPBS supplemented with 0.1% […] bovine serum albumin and 0.05% (v/v) Tween-20. […] HTRF detection was achieved using europium crypate-labeled anti-Ig (1 nM final) and allophycocyanin (APC) labeled anti-His (20 nM final). Antibodies were diluted in HTRF detection buffer and 5 μl was dispensed on top of the binding reaction. The reaction mixture was allowed to equilibrate for 30 minutes and the resulting signal (665 nm/620 nm ratio) was obtained using an EnVision fluorometer. Additional binding assays were established between the human proteins PD-1-Ig/PD-L2-His (20 & 5 nM, respectively) and CD80-His/PD-L1-Ig (100 & 10 nM, respectively).
Recombinant Proteins: Human PD-1 (25-167) with a C-terminal human Fc domain of immunoglobulin G (Ig) epitope tag [hPD-1 (25-167)-3S-IG] and human PD-L1 (18-239) with a C-terminal His epitope tag [hPD-L1(18-239)-TVMV-His] were expressed in HEK293T cells and purified sequentially by ProteinA affinity chromatography and size exclusion chromatography. Human PD-L2-His and CD80-His was obtained through commercial sources.
Table 1 lists the IC50 values for representative examples of this disclosure measured in the PD-1/PD-L1 Homogenous Time-Resolved Fluorescence (HTRF) binding assay.

T1 sequence (Q9NZQ7 18-239): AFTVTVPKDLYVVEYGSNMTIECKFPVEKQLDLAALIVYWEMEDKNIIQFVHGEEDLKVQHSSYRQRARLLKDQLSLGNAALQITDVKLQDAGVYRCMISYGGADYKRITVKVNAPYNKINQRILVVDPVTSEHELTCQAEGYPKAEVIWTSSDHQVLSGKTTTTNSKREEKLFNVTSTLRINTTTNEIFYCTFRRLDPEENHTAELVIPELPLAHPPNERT

| Structure (SMILES) | IC50 |
| --- | --- |
| CCCC[C@H]1C(=O)N(C)[C@@H](CCCC)C(=O)N[C@@H](CC(C)C)C(=O)N[C@H](C(=O)NCC(=O)N[C@@H](Cc2cn(CCOCCOCCOCCOCCOCCOCCOCCOCCOCCOCCOCCNC(=O)CC[C@H](NC(=O)CCCCCCCCCCCCCCCCC(=O)O)C(=O)O)nn2)C(=O)O)CSCC(=O)N[C@@H](Cc2ccc(O)cc2)C(=O)N(C)[C@@H](C)C(=O)N[C@@H](CC(N)=O)C(=O)N2CCC[C@H]2C(=O)N[C@@H](CNC(=O)O[C@H]2CC[C@@]3(C)C(CC[C@H]4[C@@H]5CC[C@H]([C@H](C)CCCC(C)C)[C@@]5(C)CC[C@@H]43)C2)C(=O)N[C@@H](CC(C)C)C(=O)N2C[C@H](O)C[C@H]2C(=O)N[C@@H](Cc2c[nH]c3ccccc23)C(=O)N[C@@H](CC)C(=O)N[C@@H](CC2=CC(CC(=O)O)c3ccccc32)C(=O)N1C (stereo partly shown) [Example 1027] | 110 nM |
| CCCC[C@H]1C(=O)N(C)[C@@H](CCCC)C(=O)N[C@@H](CC(C)C)C(=O)N[C@H](C(=O)NCC(=O)N[C@@H](Cc2cn(CCOCCOCCOCCOCCOCCOCCOCCOCCOCCOCCOCCNC(=O)CC[C@H](NC(=O)CCCCCCCCCCCCCCCCC(=O)OC)C(=O)OC)nn2)C(=O)OC)CSCC(=O)N[C@@H](Cc2ccc(O)cc2)C(=O)N(C)[C@@H](C)C(=O)N[C@@H](CC(N)=O)C(=O)N2CCC[C@H]2C(=O)N[C@@H](CNC(=O)OC(C)(C)C)C(=O)N[C@@H](CC(C)C)C(=O)N2C[C@H](O)C[C@H]2C(=O)N[C@@H](Cc2c[nH]c3ccccc23)C(=O)N[C@@H](CCNC(=O)OC(C)(C)C)C(=O)N[C@@H](Cc2cn(CC(=O)OC)c3ccccc23)C(=O)N1C [Example 2001] | 170 nM |
| CCCC[C@H]1C(=O)N(C)[C@@H](CCCC)C(=O)N[C@@H](CC(C)C)C(=O)N[C@H](C(=O)NCC(=O)N[C@@H](Cc2cn(CCOCCOCCOCCOCCOCCOCCOCCOCCOCCOCCOCCNC(=O)CC[C@H](NC(=O)CCCCCCCCCCCCCCCCC(=O)O)C(=O)O)nn2)C(=O)OC)CSCC(=O)N[C@@H](Cc2ccc(O)cc2)C(=O)N(C)[C@@H](C)C(=O)N[C@@H](CC(N)=O)C(=O)N2CCC[C@H]2C(=O)N[C@@H](CN)C(=O)N[C@@H](CC(C)C)C(=O)N2C[C@H](O)C[C@H]2C(=O)N[C@@H](Cc2c[nH]c3ccccc23)C(=O)N[C@@H](CCN)C(=O)N[C@@H](Cc2cn(CC(=O)OC)c3ccccc23)C(=O)N1C [Example 3001] | 10 nM |
| CCCC[C@H]1C(=O)N(C)[C@@H](CCCC)C(=O)N[C@@H](CC(C)C)C(=O)N[C@H](C(=O)NCC(=O)N[C@@H](Cc2cn(CCOCCOCCOCCOCCOCCOCCOCCOCCOCCOCCOCCNC(=O)CC[C@H](NC(=O)CCCCCCCCCCCCCCCCC(=O)O)C(=O)O)nn2)C(=O)OC)CSCC(=O)N[C@@H](Cc2ccc(O)cc2)C(=O)N(C)[C@@H](C)C(=O)N[C@@H](CC(N)=O)C(=O)N2CCC[C@H]2C(=O)N[C@@H](CN)C(=O)N[C@@H](CC(C)C)C(=O)N2C[C@H](O)C[C@H]2C(=O)N[C@@H](Cc2c[nH]c3ccccc23)C(=O)N[C@@H](CCN)C(=O)N[C@@H](Cc2cn(CC(=O)OC)c3ccccc23)C(=O)N1C [Example 3002] | 12 nM |

Next, values leading:

| IC50 | Structure (SMILES) |
| --- | --- |
| 9.3 nM | CCCC[C@H]1C(=O)N(C)[C@@H](CCCC)C(=O)N[C@@H](CC(C)C)C(=O)N[C@H](C(=O)NCC(=O)N[C@@H](Cc2cn(CCOCCOCCOCCOCCOCCOCCOCCOCCOCCOCCOCCNC(=O)CC[C@H](NC(=O)CCCCCCCCCCCCCCCCC(=O)O)C(=O)OC)nn2)C(=O)O)CSCC(=O)N[C@@H](Cc2ccc(O)cc2)C(=O)N(C)[C@@H](C)C(=O)N[C@@H](CC(N)=O)C(=O)N2CCC[C@H]2C(=O)N[C@@H](CN)C(=O)N[C@@H](CC(C)C)C(=O)N2C[C@H](O)C[C@H]2C(=O)N[C@@H](Cc2c[nH]c3ccccc23)C(=O)N[C@@H](CCN)C(=O)N[C@@H](Cc2cn(CC(=O)OC)c3ccccc23)C(=O)N1C [Example 3003] |
| 21 nM | CCCC[C@H]1C(=O)N(C)[C@@H](CCCC)C(=O)N[C@@H](CC(C)C)C(=O)N[C@H](C(=O)NCC(=O)N[C@@H](Cc2cn(CCOCCOCCOCCOCCOCCOCCOCCOCCOCCOCCOCCNC(=O)CC[C@H](NC(=O)CCCCCCCCCCCCCCCCC(=O)O)C(=O)OC)nn2)C(=O)OC)CSCC(=O)N[C@@H](Cc2ccc(O)cc2)C(=O)N(C)[C@@H](C)C(=O)N[C@@H](CC(N)=O)C(=O)N2CCC[C@H]2C(=O)N[C@@H](CN)C(=O)N[C@@H](CC(C)C)C(=O)N2C[C@H](O)C[C@H]2C(=O)N[C@@H](Cc2c[nH]c3ccccc23)C(=O)N[C@@H](CCN)C(=O)N[C@@H](Cc2cn(CC(=O)OC)c3ccccc23)C(=O)N1C [Example 3004] |
| 0.58 nM | CCCC[C@H]1C(=O)N(C)[C@@H](CCCC)C(=O)N[C@@H](CC(C)C)C(=O)N[C@H](C(=O)NCC(=O)N[C@@H](Cc2cn(CCOCCOCCOCCOCCOCCOCCOCCOCCOCCOCCOCCNC(=O)CC[C@H](NC(=O)CCCCCCCCCCCCCCCCC(=O)O)C(=O)O)nn2)C(=O)O)CSCC(=O)N[C@@H](Cc2ccc(O)cc2)C(=O)N(C)[C@@H](C)C(=O)N[C@@H](CC(N)=O)C(=O)N2CCC[C@H]2C(=O)N[C@@H](CN)C(=O)N[C@@H](CC(C)C)C(=O)N2C[C@H](O)C[C@H]2C(=O)N[C@@H](Cc2c[nH]c3ccccc23)C(=O)N[C@@H](CCNC(=O)OC)C(=O)N[C@@H](Cc2cn(CC(=O)O)c3ccccc23)C(=O)N1C [Example 5001] |
| 5.5 nM | CCCC[C@H]1C(=O)N(C)[C@@H](CCCC)C(=O)N[C@@H](CC(C)C)C(=O)N[C@H](C(=O)NCC(=O)N[C@@H](Cc2cn(CCOCCOCCOCCOCCOCCOCCOCCOCCOCCOCCOCCNC(=O)CC[C@H](NC(=O)CCCCCCCCCCCCCCCCC(=O)O)C(=O)O)nn2)C(=O)OC)CSCC(=O)N[C@@H](Cc2ccc(O)cc2)C(=O)N(C)[C@@H](C)C(=O)N[C@@H](CC(N)=O)C(=O)N2CCC[C@H]2C(=O)N[C@@H](CN)C(=O)N[C@@H](CC(C)C)C(=O)N2C[C@H](O)C[C@H]2C(=O)N[C@@H](Cc2c[nH]c3ccccc23)C(=O)N[C@@H](CCN)C(=O)N[C@@H](Cc2cn(CC(=O)O)c3ccccc23)C(=O)N1C [Example 6003] |
| 53 nM | CCCC[C@H]1C(=O)N(C)[C@@H](CCCC)C(=O)N[C@@H](CC(C)C)C(=O)N[C@H](C(=O)NCC(=O)N[C@@H](Cc2cn(CCOCCOCCOCCOCCOCCOCCOCCOCCOCCOCCOCCNC(=O)CC[C@H](NC(=O)CCCCCCCCCCCCCCCCC(=O)OC)C(=O)O)nn2)C(=O)O)CSCC(=O)N[C@@H](Cc2ccc(O)cc2)C(=O)N(C)[C@@H](C)C(=O)N[C@@H](CC(N)=O)C(=O)N2CCC[C@H]2C(=O)N[C@@H](CNC(=O)OCC)C(=O)N[C@@H](CC(C)C)C(=O)N2C[C@H](O)C[C@H]2C(=O)N[C@@H](Cc2c[nH]c3ccccc23)C(=O)N[C@@H](CCN)C(=O)N[C@@H](Cc2cn(CC(=O)O)c3ccccc23)C(=O)N1C [Example 7001] |
| 7.4 nM | CCCC[C@H]1C(=O)N(C)[C@@H](CCCC)C(=O)N[C@@H](CC(C)C)C(=O)N[C@H](C(=O)NCC(=O)N[C@@H](Cc2cn(CCOCCOCCOCCOCCOCCOCCOCCOCCOCCOCCOCCNC(=O)CC[C@H](NC(=O)CCCCCCCCCCCCCCCCC(=O)OC)C(=O)O)nn2)C(=O)O)CSCC(=O)N[C@@H](Cc2ccc(O)cc2)C(=O)N(C)[C@@H](C)C(=O)N[C@@H](CC(N)=O)C(=O)N2CCC[C@H]2C(=O)N[C@@H](CNC(=O)OCc2oc(=O)oc2C)C(=O)N[C@@H](CC(C)C)C(=O)N2C[C@H](O)C[C@H]2C(=O)N[C@@H](Cc2c[nH]c3ccccc23)C(=O)N[C@@H](CCN)C(=O)N[C@@H](Cc2cn(CC(=O)O)c3ccccc23)C(=O)N1C [Example 7003] |
